# Assay results: patent US6465505B1, “Benzyl-substituted benzimidazoles” (AstraZeneca AB, priority 1996, dated 2002)
# Test system: acid secretion in isolated rabbit gastric glands
# Experiment: Acid secretion inhibition in isolated rabbit gastric glands
# Assay type: cell-based
# Conditions: Oryctolagus cuniculus, in vitro, read-out: IC50, inhibiting effect on acid secretion in vitro
# Protocol: Acid Secretion Inhibition in Isolated Rabbit Gastric Glands
# Inhibiting effect on acid secretion in vitro in isolated rabbit gastric glands was measured as described by Berglindh et al. (1976) Acta Physiol. Scand. 97, 401-414.
row,IC50 [µM],SMILES
1,12.9,"Cc1nc2c(NCc3ccccc3)cccc2[nH]1 [Compound (A), 4-benzylamino-2-methylbenzimidazole]"
2,7.8,"Cc1nc2c(OCc3ccccc3)cccc2[nH]1 [Compound (B), 4-benzyloxy-2-methyl benzimidazole]"
